Measurements from US20250171457A1, “NITROGEN-CONTAINING HETEROCYCLIC COMPOUND HAVING NRF2 ACTIVATION EFFECT” (CHUGAI SEIYAKU KABUSHIKI KAISHA, priority 2022, published 2025).

System: Nrf2 transcriptional activity (pARE-Luc reporter) in HepG2 cells
Assay: In vitro Nrf2 transcriptional activity measurement by ARE-dependent reporter assay in HepG2 cell
Type: cell-based, human
Details: Homo sapiens; HepG2 cells transfected with pARE-Luc, 4 hours at 37° C.; luciferase activity of Example 1-54 or Example 17-23 at 3.75 μM defined as 100%
Summary of the method: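 Luminescence readout (Bright-Glo) after 4 h, 37° C compound exposure of HepG2 cells carrying the ARE-luciferase vector pGL4.37. Each well converted to % response versus reference compound at 3.75 μM, and EC50 derived from dose-response curves.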

Structure (SMILES)	EC50 [nM]
COC1CCC12CN(c1cc(Cl)c(C(=O)N3COc4c(cccc4-c4cc(N5C6CCC5COC6)c(C(=O)O)cc4F)C3)c(Cl)c1)C2 (racemic) [Compound 6-13, 4-[3-[2,6-Dichloro-4-(rac-7-methoxy-2-azaspiro[3.3]heptan-2-yl)benzoyl]-2,4-dihydro-1,3-benzoxazin-8-yl]-5-fluoro-2-(3-oxa-8-azabicyclo[3.2.1]octan-8-yl)benzoic acid]	3.8
O=C(O)c1cc(F)c(-c2cccc3c2OCN(C(=O)c2c(Cl)cc(N4CC5CCC(C4)N5CC(F)F)cc2Cl)C3)cc1N1C2CCC1COC2 [Compound 7-13, 4-[3-[2,6-Dichloro-4-[8-(2,2-difluoroethyl)-3,8-diazabicyclo[3.2.1]octan-3-yl]benzoyl]-2,4-dihydro-1,3-benzoxazin-8-yl]-5-fluoro-2-(3-oxa-8-azabicyclo[3.2.1]octan-8-yl)benzoic acid]	5.7
Cn1ncc2cc(-c3cc(Cl)c(C(=O)N4COc5c(cccc5-c5cc(N6C7CCC6COC7)c(C(=O)O)cc5F)C4)c(Cl)c3)ccc21 [Compound 3-15, 4-[3-[2,6-Dichloro-4-(1-methylindazol-5-yl)benzoyl]-2,4-dihydro-1,3-benzoxazin-8-yl]-5-fluoro-2-(3-oxa-8-azabicyclo[3.2.1]octan-8-yl)benzoic acid]	8.4
Cn1cc(-c2cc(Cl)c(C(=O)N3COc4c(cccc4-c4ccc(C(=O)O)c(N5CCC(F)(F)CC5)c4)C3)c(Cl)c2)cn1 [Compound 14-3, 4-[3-[2,6-Dichloro-4-(1-methylpyrazol-4-yl)benzoyl]-2,4-dihydro-1,3-benzoxazin-8-yl]-2-(4,4-difluoropiperidin-1-yl)benzoic acid]	12
CCOc1cc(Cl)c(C(=O)N2COc3c(cccc3-c3cc(N4CCOCC4)c(C(=O)O)cc3F)C2)cc1OC [Compound 4-54, 4-[3-(2-Chloro-4-ethoxy-5-methoxybenzoyl)-2,4-dihydro-1,3-benzoxazin-8-yl]-5-fluoro-2-morpholin-4-ylbenzoic acid]	1.2
Cn1cc2cncc(-c3cc(Cl)c(C(=O)N4COc5c(cccc5-c5cc(N6C7CCC6COC7)c(C(=O)O)cc5F)C4)c(Cl)c3)c2n1 [Compound 3-6, 4-[3-[2,6-Dichloro-4-(2-methylpyrazolo[4,3-c]pyridin-7-yl)benzoyl]-2,4-dihydro-1,3-benzoxazin-8-yl]-5-fluoro-2-(3-oxa-8-azabicyclo[3.2.1]octan-8-yl)benzoic acid]	9
C[C@@H]1[C@H](N2CCOCC2)CN1c1cc(Cl)c(C(=O)N2COc3c(cccc3-c3cc(N4C5CCC4COC5)c(C(=O)O)cc3F)C2)c(Cl)c1 [Compound 1-85, 4-[3-[2,6-Dichloro-4-[(2R,3R)-2-methyl-3-morpholin-4-ylazetidin-1-yl]benzoyl]-2,4-dihydro-1,3-benzoxazin-8-yl]-5-fluoro-2-(3-oxa-8-azabicyclo[3.2.1]octan-8-yl)benzoic acid]	0.9
O=C(O)c1cc(F)c(-c2cccc3c2OCN(C(=O)c2c(Cl)cc(N4CC5(COCCO5)C4)cc2Cl)C3)cc1N1C2CCC1COC2 [Compound 16-15, 4-[3-[2,6-Dichloro-4-(5,8-dioxa-2-azaspiro[3.5]nonan-2-yl)benzoyl]-2,4-dihydro-1,3-benzoxazin-8-yl]-5-fluoro-2-(3-oxa-8-azabicyclo[3.2.1]octan-8-yl)benzoic acid]	3
O=C(O)c1cc(F)c(-c2cccc3c2OCN(C(=O)c2c(Cl)cc(N4CCNC(C(F)(F)F)C4)cc2Cl)C3)cc1N1C2CCC1COC2 (stereo not drawn) [Compound 1-32, 4-[3-[2,6-Dichloro-4-[3-(trifluoromethyl)piperazin-1-yl]benzoyl]-2,4-dihydro-1,3-benzoxazin-8-yl]-5-fluoro-2-(3-oxa-8-azabicyclo[3.2.1]octan-8-yl)benzoic acid]	1.5
COCCN1CCC[C@@H](Oc2cc(Cl)c(C(=O)N3COc4c(cccc4-c4cc(N5CCOCC5)c(C(=O)O)cc4F)C3)c(Cl)c2)C1 [Compound 8-7, 4-[3-[2,6-Dichloro-4-[(3R)-1-(2-methoxyethyl)piperidin-3-yl]oxybenzoyl]-2,4-dihydro-1,3-benzoxazin-8-yl]-5-fluoro-2-morpholin-4-ylbenzoic acid]	2.1
CCN1CCN(c2cc(Cl)c(C(=O)N3COc4c(cccc4-c4cc(N5C6CCC5COC6)c(C(=O)O)cc4F)C3)c(Cl)c2)[C@H](C)C1 [Compound 9-22, 4-[3-[2,6-Dichloro-4-[(2R)-4-ethyl-2-methylpiperazin-1-yl]benzoyl]-2,4-dihydro-1,3-benzoxazin-8-yl]-5-fluoro-2-(3-oxa-8-azabicyclo[3.2.1]octan-8-yl)benzoic acid]	0.9
CO[C@H]1CCOC12CN(c1cc(Cl)c(C(=O)N3COc4c(cccc4-c4cc(N5C6CCC5COC6)c(C(=O)O)cc4F)C3)c(Cl)c1)C2 [Compound 1-31, 4-[3-[2,6-Dichloro-4-[(8S)-8-methoxy-5-oxa-2-azaspiro[3.4]octan-2-yl]benzoyl]-2,4-dihydro-1,3-benzoxazin-8-yl]-5-fluoro-2-(3-oxa-8-azabicyclo[3.2.1]octan-8-yl)benzoic acid]	1.9
Cn1cc(-c2cc(Cl)c(C(=O)N3COc4c(cccc4-c4cc(N5CCOCC5)c(C(=O)O)cc4F)C3)c(Cl)c2)cn1 [Compound 13-19, 4-[3-[2,6-Dichloro-4-(1-methylpyrazol-4-yl)benzoyl]-2,4-dihydro-1,3-benzoxazin-8-yl]-5-fluoro-2-morpholin-4-ylbenzoic acid]	1.6
COc1ccc(-c2cc(Cl)c(C(=O)N3COc4c(cccc4-c4cc(N5C6CCC5COC6)c(C(=O)O)cc4F)C3)c(Cl)c2)nn1 [Compound 3-3, 4-[3-[2,6-Dichloro-4-(6-methoxypyridazin-3-yl)benzoyl]-2,4-dihydro-1,3-benzoxazin-8-yl]-5-fluoro-2-(3-oxa-8-azabicyclo[3.2.1]octan-8-yl)benzoic acid]	9.4
C[C@@H]1CN(C)CCN1c1cc(F)c(C(=O)N2COc3c(cccc3-c3cc(N4C5CCC4COC5)c(C(=O)O)cc3F)C2)c(Cl)c1 [Compound 19-7, 4-[3-[2-Chloro-4-[(2R)-2,4-dimethylpiperazin-1-yl]-6-fluorobenzoyl]-2,4-dihydro-1,3-benzoxazin-8-yl]-5-fluoro-2-(3-oxa-8-azabicyclo[3.2.1]octan-8-yl)benzoic acid]	2.3
C=Cc1cc(C(=O)N2COc3c(cccc3-c3cc(N4CCOCC4)c(C(=O)O)cc3F)C2)c(Cl)cc1OC [Compound 18-1, 4-[3-(2-Chloro-5-ethenyl-4-methoxybenzoyl)-2,4-dihydro-1,3-benzoxazin-8-yl]-5-fluoro-2-morpholin-4-ylbenzoic acid]	4.1
COCCOc1cc(Cl)c(C(=O)N2CCc3c(cccc3[C@H](C)[C@H](C)C(=O)O)C2)c(Cl)c1 [Compound 17-23, (2S,3R)-3-[2-[2,6-Dichloro-4-(2-methoxyethoxy)benzoyl]-3,4-dihydro-1H-isoquinolin-5-yl]-2-methylbutanoic acid]	110
Cn1cc(-c2cc(Cl)c(C(=O)N3CNc4c(cccc4-c4ccc(C(=O)O)c(N5CCOCC5)c4)C3)c(Cl)c2)cn1 [Compound 14-5, 4-[3-[2,6-Dichloro-4-(1-methylpyrazol-4-yl)benzoyl]-2,4-dihydro-1H-quinazolin-8-yl]-2-morpholin-4-ylbenzoic acid]	3.1
C[C@@H]1CN(C)CCN1c1cc(Cl)c(C(=O)N2COc3c(cccc3-c3cc(N4C5CCC4COC5)c(-c4n[nH]c(=O)o4)cc3F)C2)c(Cl)c1 [Compound 16-3, 5-[4-[3-[2,6-Dichloro-4-[(2R)-2,4-dimethylpiperazin-1-yl]benzoyl]-2,4-dihydro-1,3-benzoxazin-8-yl]-5-fluoro-2-(3-oxa-8-azabicyclo[3.2.1]octan-8-yl)phenyl]-3H-1,3,4-oxadiazol-2-one]	17
CO[C@@H]1COC2(C1)CN(c1cc(Cl)c(C(=O)N3COc4c(cccc4-c4cc(N5C6CCC5COC6)c(C(=O)O)cc4F)C3)c(Cl)c1)C2 [Compound 1-22, 4-[3-[2,6-Dichloro-4-[(7S)-7-methoxy-5-oxa-2-azaspiro[3.4]octan-2-yl]benzoyl]-2,4-dihydro-1,3-benzoxazin-8-yl]-5-fluoro-2-(3-oxa-8-azabicyclo[3.2.1]octan-8-yl)benzoic acid]	2.1
COCCN1C2CCC1CN(c1cc(Cl)c(C(=O)N3COc4c(cccc4-c4cc(N5C6CCC5COC6)c(C(=O)O)cc4F)C3)c(Cl)c1)C2 [Compound 7-11, 4-[3-[2,6-Dichloro-4-[8-(2-methoxyethyl)-3,8-diazabicyclo[3.2.1]octan-3-yl]benzoyl]-2,4-dihydro-1,3-benzoxazin-8-yl]-5-fluoro-2-(3-oxa-8-azabicyclo[3.2.1]octan-8-yl)benzoic acid]	3.2
CO[C@H]1C[C@]2(CN(c3cc(Cl)c(C(=O)N4COc5c(cccc5-c5cc(N6C7CCC6COC7)c(C(=O)O)cc5F)C4)c(Cl)c3)[C@H]2C)C1 [Compound 1-27, 4-[3-[2,6-Dichloro-4-[(1S,4s,6R)-6-methoxy-1-methyl-2-azaspiro[3.3]heptan-2-yl]benzoyl]-2,4-dihydro-1,3-benzoxazin-8-yl]-5-fluoro-2-(3-oxa-8-azabicyclo[3.2.1]octan-8-yl)benzoic acid]	2.9
Cc1cc(-c2cccc3c2OCN(C(=O)c2c(Cl)cc(-c4cnn(C)c4)cc2Cl)C3)cc(N2CCOCC2)c1C(=O)O [Compound 13-20, 4-[3-[2,6-Dichloro-4-(1-methylpyrazol-4-yl)benzoyl]-2,4-dihydro-1,3-benzoxazin-8-yl]-2-methyl-6-morpholin-4-ylbenzoic acid]	7.2
O=C(O)c1cc(F)c(-c2cccc3c2OCN(C(=O)c2c(Cl)cc(N4CCN(C5COC5)CC4)cc2Cl)C3)cc1N1C2CCC1COC2 [Compound 4-59, 4-[3-[2,6-Dichloro-4-[4-(oxetan-3-yl)piperazin-1-yl]benzoyl]-2,4-dihydro-1,3-benzoxazin-8-yl]-5-fluoro-2-(3-oxa-8-azabicyclo[3.2.1]octan-8-yl)benzoic acid]	12
